# Legend:
# Siglec-2 (CD22) [1] = molecular target: T1, Siglec-2 (CD22) (Homo sapiens, UniProt P20273); experiment: new affinity assay: displacement of biotinylated compound 155 from sialidase-treated Daudi cells, FACS with streptavidin-PE; type: binding; set-up: endogenous in cells; host or cells: Daudi (human B-cell lymphoma line); conditions: for rIP: Table II, rIP values set relative to compound 38, Daudi cells, displacement of compound 155; for rIP (New assay): relative Inhibitory Potency from IC50, human B-cell lymphoma line Daudi, compound 38 = 1
# T1 sequence (P20273 20-847): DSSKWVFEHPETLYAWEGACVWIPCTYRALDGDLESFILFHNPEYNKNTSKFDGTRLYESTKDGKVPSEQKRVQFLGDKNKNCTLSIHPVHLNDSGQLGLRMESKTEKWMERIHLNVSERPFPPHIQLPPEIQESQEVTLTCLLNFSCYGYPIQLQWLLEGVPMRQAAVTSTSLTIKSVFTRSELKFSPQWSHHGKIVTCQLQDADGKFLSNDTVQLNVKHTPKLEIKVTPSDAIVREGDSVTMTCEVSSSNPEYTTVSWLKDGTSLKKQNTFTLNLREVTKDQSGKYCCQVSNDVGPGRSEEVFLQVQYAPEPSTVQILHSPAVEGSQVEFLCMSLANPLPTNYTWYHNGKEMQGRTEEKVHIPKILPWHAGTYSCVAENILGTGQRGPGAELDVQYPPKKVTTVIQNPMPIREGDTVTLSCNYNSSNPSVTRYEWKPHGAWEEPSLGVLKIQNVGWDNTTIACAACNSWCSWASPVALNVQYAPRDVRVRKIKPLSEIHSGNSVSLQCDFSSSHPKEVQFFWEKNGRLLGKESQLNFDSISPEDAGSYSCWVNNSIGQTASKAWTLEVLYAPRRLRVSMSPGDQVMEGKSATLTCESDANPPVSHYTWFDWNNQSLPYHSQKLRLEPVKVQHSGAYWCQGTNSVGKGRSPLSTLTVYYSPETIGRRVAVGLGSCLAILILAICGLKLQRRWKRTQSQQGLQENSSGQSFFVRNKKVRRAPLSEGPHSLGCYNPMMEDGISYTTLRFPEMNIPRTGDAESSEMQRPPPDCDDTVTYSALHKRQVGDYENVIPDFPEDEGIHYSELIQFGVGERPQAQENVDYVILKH
# Method in brief: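 Sialidase-treated Daudi cells preincubated on ice 15 min with inhibitor (1 mM to 1×10^−7 mM), then 20 min with biotinylated probe (4 μM as added); bound probe detected by streptavidin-PE flow cytometry. IC50 converted to relative inhibitory potency (rIP) against a reference substance.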
# Siglec-2 (CD22) [2] = molecular target: T1, Siglec-2 (CD22); experiment: known affinity assay (Bock et al., Methods Mol. Biol. 2006), 'Literature assay'; type: binding; conditions: relative Inhibitory Potency; BPC Neu5Ac = 1
# Description: The affinity of a number of dimers was measured using a known assay (Bock et al., Methods Mol. Biol. 2006, 347, 359-375). […] Exact values were undeterminable, however, owing to fluctuating values. In order to be able to determine the affinity of the new derivatives reliably, a new assay was drawn up. For this assay, compound 155 was prepared.
SMILES,rIP (Siglec-2 (CD22) [1]),rIP (New assay) (Siglec-2 (CD22) [1]),rIP (Literature assay) (Siglec-2 (CD22) [2])
CC(=O)N[C@H]1[C@H]([C@H](O)[C@H](O)CNC(=O)c2ccc(-c3ccccc3)cc2)O[C@@](OCCCSCCNC(=O)c2ccc(C(=O)NCCSCCCO[C@]3(C(=O)[O-])C[C@H](O)[C@@H](NC(C)=O)[C@H]([C@H](O)[C@H](O)CNC(=O)c4ccc(-c5ccccc5)cc4)O3)cc2)(C(=O)[O-])C[C@@H]1O.[Na+].[Na+] [Compound 21],2979,2979,>2000
CC(=O)N[C@H]1[C@H]([C@H](O)[C@H](O)CO)O[C@@](OCCCSCCNC(=O)c2ccc(C(=O)NCCSCCCO[C@]3(C(=O)[O-])C[C@H](O)[C@@H](NC(C)=O)[C@H]([C@H](O)[C@H](O)CO)O3)cc2)(C(=O)[O-])C[C@@H]1O.[Na+].[Na+] [Compound 38],1,1,~1-3
"CO[C@]1(C(=O)[O-])C[C@H](O)[C@@H](NC(C)=O)[C@H]([C@H](O)[C@H](O)CNC(=O)c2ccc(-c3ccccc3)cc2)O1.[Na+] [BPC Neu 5Ac, reference compound]",–,–,1
